Test results as given in patent US9072751B2, “Na/K-ATPase ligand” (priority 2006, dated 2015).

What was measured:
[1] = system: left ventricular cardiac tissue; assay: Cardiac tissue fibrosis, immunohistochemistry and Western blot after MBG infusion; assay type: in vivo, Sprague-Dawley rats
Description: (§1) Briefly, Sprague-Dawley rats weighing.apprxeq.250 g at the time of surgery were subjected to either sham surgery with no MBG infusion (Sham), sham surgery with placement of a minipump infusing MBG at 10 μg/kg per day (MBG), PNx, and PNx after immunization against MBG (PNx-IM). MBG of extremely high purity (>99%) was isolated from the venom of Bufa marinas by Kennedy et al. In addition to these maneuvers, a group of PNx animals was subjected to adrenalectomy as well (PNx-ADx).
(§2) (determined after extraction on a C-18 column using DELPHIA as described previously), aldosterone (determined with ELISA kit 10004377, Cayman Chemical) and cardiac immunohistochemistry (vida infra) were assessed 4 weeks after surgery.
Western blot analysis was performed on protein isolated from tissue homogenates, cell culture whole cell lysates, or nuclear extracts as described previously.
Immunization against MBG attenuated these increases. Western blot analysis confirmed that PNx and MBG had 2 to 2.5 times the expression of procollagin-1 and a smooth muscle actin seen with sham-operated controls, whereas PNx-IM expression of both procollagen-1 and a smooth muscle actin was substantially less than that seen with PNx.
Other data includes a representative pressure-volume loops obtained during vena cava occlusion from rats subjected to sham surgery (Sham), PNx, MBG infusion (MBG), and PNx after immunization against an MBG-albumin conjugate (PNx-IM). Regression lines fit to the end systolic pressure volume relationship (ESPVR, dotted line) and the end diastolic pressure volume relationship (EDPVR, solid line). B, ventricular cross-sectional areas determined from trichrome stains of tissue obtained from Sham, PNx, MBG, and PNx-IM animals (each group: N=8 animals, .apprxeq.100 measurements averaged to determine mean for each animal; data shown as the group mean.+−.SEM using N−8). Representative immunohistochemistry images of cardiac tissues stained for (c) collagen-1 and (d) a smooth muscle actin (aSMA). Counterstain for both c and d was hematoxlyn. Western blot and corresponding densitometric analysis for (e) procollagen-1 and (f) aSMA. Note that both collagen-1 and aSMA staining are much more intense in the PNx and MBG groups compared with Sham, whereas the PNx-IM staining is similar to Sham. Similarly, procollagen and aSMA expression are substantially higher in PNx and MBG animals compared with Sham, whereas immunization against MBG (PNx-IM) attenuated the changes seen with PNx. Data for e and f are derived from N=6 experiments in each group and shown as mean.+−.SEM. Sham refers to hearts isolated from control animals, PNx refers to PNx, MBG refers to MBG supplemented, and PNx-IM refers to animals immunized against MGB before PNx surgery. *P<0.05, **P<0.01 vs Sham, #P<0.01 vs PNx.

Sprague-Dawley rats = assay: Blood pressure, left ventricular hemodynamics (Millar catheter) and heart size 4 weeks after MBG infusion; assay type: in vivo
Description: Male, Sprague-Dawley rats were used for all of the studies. All of the animal experimentation described in the article was conducted in accordance with the National Institutes of Health Guide for the Care and use of Laboratory Animals using protocols approved by the Medical University of Ohio Institutional Animal Use and Care Committee.
as §1, §2
In the current in vivo studies we observed that MBG levels were increased in PNx- and MBG-treated rats compared with sham-operated controls. […] Using the Millar pressure/volume sensor catheter rather than echocardiography in our previous report, we observed that PNx induced decreases in end systolic volume and end diastolic volume, as well as increased ejection fraction compared with sham-operated controls. The end systolic volume and end diastolic volume were greater, and the ejection factor values were lower in PNX-IM as compared with PNx. […] Using pressure volume loops generated during vena cava occlusions, we noted that the end diastolic pressure volume relationship (an inverse measurement of passive compliance) was increased in PNx- and MBG-treated animals compared with controls, whereas […] ha a lower end diastolic pressure volume relationship than PNx.

fibroblast cell line = assay: Procollagen expression in immortalized fibroblast cell line (Western blot); assay type: cell-based
From the text: We next examined whether skin fibroblasts lines had similar response. This was done with dermal fibroblasts kindly provided by Dr. Bashar Kahaleh. […] The magnitude of this response is illustrated by comparison to maximal doses of TGFβ, the “classic” stimulus for fibrosis (see below). In addition, we observed that an immortalized fibroblast line responded similarly to MBG, ouabain and digoxin.
Response of dermal fibroblasts to MBG as compared with TGF beta. Note that increase in collagen expression in MBG is approximately 10 fold with 5 or 10 nM MBG.

[2] = system: TGF-β, Smad 2/3, Smad 4, pSmad 2/3; assay: TGF-β, Smad 2/3, Smad 4, pSmad 2/3 expression in fibroblasts (Western blot); assay type: cell-based, rat; conditions: 24 hours, 1 and 10 nM
From the text: To further examine the molecular mechanisms by which cardiotonic steroids induce collagen production in fibroblasts, we examined the effects of MBG on TGF-β expression, as well as the expression of Smad 2/3, Smad 4, and pSmad 2/3. […] Next, we examined whether TGF-β induced collagen production and whether there was synergism between TGF-β and MBG. […] However, it is important to point out that we never completely serum starve the primary cultures, and because serum is always present, some TGF-β is always present.
The effect of 24 hours of MBG (1 and 10 nM) on TGF-β, Smad 2/3, Smad 4, and pSmad 2/3 expression determined by Western blot. b and c, effects of 24 hours of MBG (10 nM), TGFβ(5 ng/mL), and the TGF-β receptor antagonist SB431542 ([…] on procollagen-1 expression (Western blot) and radiolabeled proline incorporation, respectively also were carried out. SB431542 was added 2 hours before exposure to either TGFβ or MBG (total of 26-hour exposure). Each bar represents the mean.+−.SEM of 6 to 8 determinations. *P<0.05, **P<0.01 vs. control.

[3] = MBG infusion, 4 weeks, mean ± SEM

C[C@]12CC[C@H](O)C[C@@]1(O)CC[C@@H]1[C@@H]2CC[C@]2(C)[C@@H](c3ccc(=O)oc3)C[C@H]3O[C@]132 [MBG, marinobufagenin]
Cardiac fibrosis [1]: caused cardiac fibrosis | Collagen-1 and a smooth muscle actin staining (immunohistochemistry) ([1]; heart tissue): marked increases | Expression of a smooth muscle actin relative to sham-operated controls (Western blot) ([1]; heart tissue): 2 to 2.5 times | Expression of procollagin-1 relative to sham-operated controls (Western blot) ([1]; heart tissue): 2 to 2.5 times | Ejection fraction (Sprague-Dawley rats; [3]): 68 ± 2 % | End diastolic volume (Sprague-Dawley rats; [3]): 162 ± 14 µL | End systolic volume (Sprague-Dawley rats; [3]): 60 ± 6 µL | Heart rate (Tall cuff measurements) (Sprague-Dawley rats; [3]): 367 ± 9 bpm | Heart weight/body weight ratio (Sprague-Dawley rats; [3]): 2.8 ± 0.1 g/kg | Systolic blood pressure (Tall cuff measurements) (Sprague-Dawley rats; [3]): 136 ± 4 mm Hg | EDPVRX1000 (Sprague-Dawley rats; end diastolic pressure volume relationship, MBG infusion, 4 weeks, mean ± SEM): 41 ± 6 mm Hg/μL | τ (Sprague-Dawley rats; time constant of isovolumic relaxation, MBG infusion, 4 weeks, mean ± SEM): 11.3 ± 0.3 ms | Ventricular myocyte cross-sectional area (Sprague-Dawley rats; trichrome images, MBG infusion vs sham): marked increases | Effect on fibroblast cell line expression of procollagen (fibroblast cell line): Comparable effect | TGF-β, Smad 2/3, Smad 4, pSmad 2/3 expression in vitro [2]: did not observe significant changes
